Assay results reported in US8901313B2, “6,5-heterocyclic propargylic alcohol compounds and uses therefor” (Genentech, Inc., priority 2011, dated 2014).

These compounds were tested against T1, nuclear factor-kappa B (NF-kB)-inducing kinase (NIK) (Homo sapiens, UniProt Q99558) (assay: NIK Enzyme Inhibition Assay (Transcreener ADP assay)). Details: purified NIK 0.2-1 nM, 10 uM ATP, fluorescence polarization, Morrison's quadratic equation; read-out: inhibitory value (Ki) for NIK.
T1 construct: made in house; host or cells: baculovirus-infected insect cells
Type: biochemical

T1 sequence (Q99558 whole entry): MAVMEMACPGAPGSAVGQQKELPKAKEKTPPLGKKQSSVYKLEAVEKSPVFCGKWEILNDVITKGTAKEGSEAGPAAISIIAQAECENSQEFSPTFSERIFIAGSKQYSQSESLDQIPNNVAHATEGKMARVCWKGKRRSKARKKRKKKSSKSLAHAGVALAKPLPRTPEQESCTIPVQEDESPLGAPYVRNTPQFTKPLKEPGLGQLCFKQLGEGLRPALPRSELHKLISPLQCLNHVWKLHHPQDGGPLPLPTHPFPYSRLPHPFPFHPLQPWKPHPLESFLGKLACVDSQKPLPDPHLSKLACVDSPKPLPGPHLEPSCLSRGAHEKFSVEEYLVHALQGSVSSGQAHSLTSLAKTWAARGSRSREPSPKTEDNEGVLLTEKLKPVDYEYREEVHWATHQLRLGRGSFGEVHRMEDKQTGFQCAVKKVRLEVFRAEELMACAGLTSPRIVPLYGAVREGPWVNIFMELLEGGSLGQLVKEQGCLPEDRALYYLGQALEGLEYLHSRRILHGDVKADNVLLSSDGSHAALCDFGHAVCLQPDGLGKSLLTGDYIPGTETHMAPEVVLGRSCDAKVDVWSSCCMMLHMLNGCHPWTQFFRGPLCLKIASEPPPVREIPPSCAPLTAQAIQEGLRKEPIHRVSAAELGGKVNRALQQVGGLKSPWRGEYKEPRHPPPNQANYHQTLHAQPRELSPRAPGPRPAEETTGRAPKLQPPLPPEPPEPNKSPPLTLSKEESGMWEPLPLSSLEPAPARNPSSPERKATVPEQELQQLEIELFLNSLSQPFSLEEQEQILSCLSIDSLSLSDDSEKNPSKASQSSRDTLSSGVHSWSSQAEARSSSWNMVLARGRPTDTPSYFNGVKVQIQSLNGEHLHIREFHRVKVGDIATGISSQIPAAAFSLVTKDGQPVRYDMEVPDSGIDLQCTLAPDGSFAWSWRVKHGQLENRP

Row | Compound | Ki [nM]
1 | Cc1cc(C(C)(O)C#Cc2ccc3nc(OCC(F)(F)F)n(-c4ccnc(N)n4)c3c2)no1 (stereo not drawn) [Example T1.1-29, 4-[3-(2-aminopyrimidin-4-yl)-2-(2,2,2-trifluoroethoxy)benzimidazol-5-yl]-2-(5-methylisoxazol-3-yl) but-3-yn-2-ol] | 2
2 | Cc1nc([C@](C)(O)C#Cc2ccc3c(c2)n(-c2ccnc(N)n2)c(=O)n3C)no1 [Example T1.1-31, 3-(2-aminopyrimidin-4-yl)-5-[(3R)-3-hydroxy-3-(5-methyl-1,2,4-oxadiazol-3-yl)but-1-ynyl]-1-methyl-benzimidazol-2-one] | 2
3 | Cc1cc(C(C)(O)C#Cc2ccc3c(c2)n(-c2ccnc(N)n2)c(=O)n3CC2CC2)no1 (stereo not drawn) [Example T1.1-32, 3-(2-aminopyrimidin-4-yl)-1-(cyclopropylmethyl)-5-[3-hydroxy-3-(5-methylisoxazol-3-yl)but-1-ynyl] benzimidazol-2-one] | 2
4 | Cc1nc([C@](C)(O)C#Cc2ccc3c(C(=O)N4CC(O)C4)nn(-c4ccnc(N)n4)c3c2)no1 [Example T1.1-34, [1-(2-aminopyrimidin-4-yl)-6-[(3R)-3-hydroxy-3-(5-methyl-1,2,4-oxadiazol-3-yl)but-1-ynyl]indazol-3-yl]-(3-hydroxyazetidin-1-yl)methanone] | 2
5 | Cc1nc([C@](C)(O)C#Cc2ccc3c(C(C)(C)F)nn(-c4ccnc(N)n4)c3c2)no1 [Example T1.1-35, (2R)-4-[1-(2-aminopyrimidin-4-yl)-3-(1-fluoro-1-methyl-ethyl)indazol-6-yl]-2-(5-methyl-1,2,4-oxadiazol-3-yl) but-3-yn-2-ol] | 2
6 | CN(C)C(=O)c1nn(-c2ccnc(N)n2)c2cc(C#CC3(O)CCn4ccnc43)ccc12 (stereo not drawn) [Example T1.1-39, 1-(2-aminopyrimidin-4-yl)-6-[2-(7-hydroxy-5,6-dihydropyrrolo[1,2-a]imidazol-7-yl)ethynyl]-N,N-dimethyl-indazole-3-carboxamide] | 2
7 | Nc1nccc(-n2nc(C(=O)N3CCOCC3)c3ccc(C#CC4(O)CCn5ccnc54)cc32)n1 (stereo not drawn) [Example T1.1-41, [1-(2-aminopyrimidin-4-yl)-6-[2-(7-hydroxy-5,6-dihydropyrrolo[1,2-a]imidazol-7-yl)ethynyl]indazol-3-yl]-morpholino-methanone] | 2
8 | Cc1cc(C(C)(O)C#Cc2ccc3nc(OC4CCOCC4)n(-c4ccnc(N)n4)c3c2)no1 (stereo not drawn) [Example T1.1-42, 4-[3-(2-aminopyrimidin-4-yl)-2-tetrahydropyran-4-yloxy-benzimidazol-5-yl]-2-(5-methylisoxazol-3-yl)but-3-yn-2-ol] | 3
9 | Cc1nn(-c2ccnc(N)n2)c2cc(C#CC(C)(O)c3nc[nH]n3)ccc12 (stereo not drawn) [Example T1.1-45, 4-[1-(2-aminopyrimidin-4-yl)-3-methyl-indazol-6-yl]-2-(1H-1,2,4-triazol-3-yl)but-3-yn-2-ol] | 3
10 | Cc1nc([C@](C)(O)C#Cc2ccc3nc(OC4COC4)n(-c4ccnc(N)n4)c3c2)no1 [Example T1.1-47, (2R)-4-[3-(2-aminopyrimidin-4-yl)-2-(oxetan-3-yloxy)benzimidazol-5-yl]-2-(5-methyl-1,2,4-oxadiazol-3-yl)but-3-yn-2-ol] | 3
11 | CC(O)(C#Cc1ccc2c(CF)nn(-c3ccnc(N)n3)c2c1)c1ncccn1 (stereo not drawn) [Example T1.1-49, 4-[1-(2-aminopyrimidin-4-yl)-3-(fluoromethyl)indazol-6-yl]-2-pyrimidin-2-yl-but-3-yn-2-ol] | 4
12 | COCCOc1nc2ccc(C#C[C@@](C)(O)c3noc(C)n3)cc2n1-c1ccnc(N)n1 [Example T1.1-51, (2R)-4-[3-(2-aminopyrimidin-4-yl)-2-(2-methoxyethoxy)benzimidazol-5-yl]-2-(5-methyl-1,2,4-oxadiazol-3-yl)but-3-yn-2-ol] | 4
13 | CC(O)(C#Cc1ccc2c(C(=O)N3CCOCC3)nn(-c3ccnc(N)n3)c2c1)c1ncccn1 (stereo not drawn) [Example T1.1-54, [1-(2-aminopyrimidin-4-yl)-6-(3-hydroxy-3-pyrimidin-2-yl-but-1-ynyl)indazol-3-yl]-morpholino-methanone] | 4
14 | CC(=O)N1CC(Oc2nc3ccc(C#CC(C)(O)c4cc(C)on4)cc3n2-c2ccnc(N)n2)C1 (stereo not drawn) [Example T1.1-55, 1-[3-[1-(2-aminopyrimidin-4-yl)-6-[3-hydroxy-3-(5-methylisoxazol-3-yl)but-1-ynyl]benzimidazol-2-yl]oxyazetidin-1-yl]ethanone] | 4
15 | CC(O)(C#Cc1ccc2nc(OCCO)n(-c3ccnc(N)n3)c2c1)c1ncccn1 (stereo not drawn) [Example T1.1-60, 4-[3-(2-aminopyrimidin-4-yl)-2-(2-hydroxyethoxy)benzimidazol-5-yl]-2-pyrimidin-2-yl-but-3-yn-2-ol] | 6

Results, then the compound that gave them:

Row | Ki [nM] | Compound
16 | 1 | CN(C)C(=O)c1nn(-c2ccnc(N)n2)c2cc(C#CC(C)(O)c3cc(CO)on3)ccc12 (stereo not drawn) [Example T1.1-26, 1-(2-aminopyrimidin-4-yl)-6-[3-hydroxy-3-[5-(hydroxymethyl)isoxazol-3-yl]but-1-ynyl]-N,N-dimethyl-indazole-3-carboxamide]
17 | 2 | Cc1cc(C(C)(O)C#Cc2ccc3nc(OCCO)n(-c4ccnc(N)n4)c3c2)no1 (stereo not drawn) [Example T1.1-27, 4-[3-(2-aminopyrimidin-4-yl)-2-(2-hydroxyethoxy)benzimidazol-5-yl]-2-(5-methylisoxazol-3-yl)but-3-yn-2-ol]
18 | 2 | CCOc1nc2ccc(C#CC3(O)CCn4ccnc43)cc2n1-c1ccnc(N)n1 (stereo not drawn) [Example T1.1-28, 7-[2-[3-(2-aminopyrimidin-4-yl)-2-ethoxy-benzimidazol-5-yl]ethynyl]-5,6-dihydropyrrolo[1,2-a]imidazol-7-ol]
19 | 2 | Cc1nc(C(C)(O)C#Cc2ccc3c(C(=O)N(C)C)nn(-c4ccnc(N)n4)c3c2)no1 (stereo not drawn) [Example T1.1-30, 1-(2-aminopyrimidin-4-yl)-6-[3-hydroxy-3-(5-methyl-1,2,4-oxadiazol-3-yl)but-1-ynyl]-N,N-dimethyl-indazole-3-carboxamide]
20 | 2 | Cc1nn(-c2ccnc(N)n2)c2cc(C#CC(C)(O)c3cc(CO)on3)ccc12 (stereo not drawn) [Example T1.1-33, 4-[1-(2-aminopyrimidin-4-yl)-3-methyl-indazol-6-yl]-2-[5-(hydroxy-methyl)isoxazol-3-yl]but-3-yn-2-ol]
21 | 2 | Cc1nc(C(C)(O)C#Cc2ccc3c(CC(C)(O)C(F)F)nn(-c4ccnc(N)n4)c3c2)no1 (stereo not drawn) [Example T1.1-36, 3-[1-(2-aminopyrimidin-4-yl)-6-[3-hydroxy-3-(5-methyl-1,2,4-oxadiazol-3-yl)but-1-ynyl]indazol-3-yl]-1,1-difluoro-2-methyl-propan-2-ol]
22 | 2 | Cc1cc([C@](C)(O)C#Cc2ccc3c(CN4CCOCC4)nn(-c4ccnc(N)n4)c3c2)no1 [Example T1.1-38, (2R)-4-[1-(2-aminopyrimidin-4-yl)-3-(morpholinomethyl)indazol-6-yl]-2-(5-methylisoxazol-3-yl)but-3-yn-2-ol]
23 | 2 | Cc1nc([C@](C)(O)C#Cc2ccc3c(CO)nn(-c4ccnc(N)n4)c3c2)no1 [Example T1.1-40, (2R)-4-[1-(2-aminopyrimidin-4-yl)-3-(hydroxymethyl)indazol-6-yl]-2-(5-methyl-1,2,4-oxadiazol-3-yl)but-3-yn-2-ol]
24 | 3 | CC(O)(C#Cc1ccc2c(CN3CC(F)(F)C3)nn(-c3ccnc(N)n3)c2c1)c1ncccn1 (stereo not drawn) [Example T1.1-43, 4-[1-(2-aminopyrimidin-4-yl)-3-[(3,3-difluoroazetidin-1-yl)methyl]indazol-6-yl]-2-pyrimidin-2-yl-but-3-yn-2-ol]
25 | 3 | COCCOc1nc2ccc(C#C[C@@](C)(O)c3cc(C)on3)cc2n1-c1ccnc(N)n1 [Example T1.1-44, (2R)-4-[3-(2-aminopyrimidin-4-yl)-2-(2-methoxyethoxy)benzimidazol-5-yl]-2-(5-methylisoxazol-3-yl)but-3-yn-2-ol]
26 | 3 | CC(O)(C#Cc1ccc2nc(OCC(F)(F)F)n(-c3ccnc(N)n3)c2c1)c1ncccn1 (stereo not drawn) [Example T1.1-46, 4-[3-(2-aminopyrimidin-4-yl)-2-(2,2,2-trifluoroethoxy)benzimidazol-5-yl]-2-pyrimidin-2-yl-but-3-yn-2-ol]
27 | 3 | CCOc1nc2ccc(C#CC(C)(O)c3ncccn3)cc2n1-c1ccnc(N)n1 (stereo not drawn) [Example T1.1-48, 4-[3-(2-aminopyrimidin-4-yl)-2-ethoxy-benzimidazol-5-yl]-2-pyrimidin-2-yl-but-3-yn-2-ol]
28 | 4 | Cc1nc([C@](C)(O)C#Cc2ccc3c(C(C)(C)O)nn(-c4nc(N)ncc4Cl)c3c2)no1 [Example T1.1-50, (2R)-4-[1-(2-amino-5-chloro-pyrimidin-4-yl)-3-(1-hydroxy-1-methyl-ethyl)indazol-6-yl]-2-(5-methyl-1,2,4-oxadiazol-3-yl) but-3-yn-2-ol]
29 | 4 | Cc1nn(-c2ccnc(N)n2)c2cc(C#CC(C)(O)CF)ccc12 (stereo not drawn) [Example T1.1-52, 4-[1-(2-aminopyrimidin-4-yl)-3-methyl-indazol-6-yl]-1-fluoro-2-methyl-but-3-yn-2-ol]
30 | 4 | CC(C)(O)c1nn(-c2ccnc(N)n2)c2cc(C#CC(C)(O)c3ccccn3)ccc12 (stereo not drawn) [Example T1.1-56, 4-[1-(2-aminopyrimidin-4-yl)-3-(1-hydroxy-1-methyl-ethyl)indazol-6-yl]-2-(2-pyridyl)but-3-yn-2-ol]
31 | 5 | CC(C)(O)c1nn(-c2ccnc(N)n2)c2cc(C#CC(C)(O)c3ncccn3)ccc12 (stereo not drawn) [Example T1.1-57, 4-[1-(2-aminopyrimidin-4-yl)-3-(1-hydroxy-1-methyl-ethyl)indazol-6-yl]-2-pyrimidin-2-yl-but-3-yn-2-ol]
32 | 5 | COCCOc1nc2ccc(C#CC(C)(O)c3ncccn3)cc2n1-c1ccnc(N)n1 (stereo not drawn) [Example T1.1-58, 4-[3-(2-aminopyrimidin-4-yl)-2-(2-methoxyethoxy)benzimidazol-5-yl]-2-pyrimidin-2-yl-but-3-yn-2-ol]
33 | 5 | Cc1cc(C(C)(O)C#Cc2ccc3c(C(O)(C4CCOCC4)C4CC4)nn(-c4ccnc(N)n4)c3c2)no1 (stereo not drawn) [Example T1.1-59, 4-[1-(2-aminopyrimidin-4-yl)-3-(cyclopropyl-hydroxy-tetrahydropyran-4-yl-methyl)indazol-6-yl]-2-(5-methyl-isoxazol-3-yl)but-3-yn-2-ol]
